The values that follow come from ChEMBL document CHEMBL5260848, “Recent advancements in the development of bioactive pyrazoline derivatives” (Eur J Med Chem, 2020).

In brackets after ≈: the same amount, converted by molar mass.

Targets include Acetylcholinesterase (Homo sapiens, UniProt P22303); Carbonic anhydrase 1 (Homo sapiens, UniProt P00915); Carbonic anhydrase 2 (Homo sapiens, UniProt P00918).
A short description of experiment [1]: Growth inhibition of human Panel NCI-58 (58 carcinoma cell lines) cells by SRB method. Format: functional. Background: The SRB assay estimates cell density from bound dye.
A short description of experiment [2]: Cytotoxicity against human Panel NCI-58 (58 carcinoma cell lines) cells by SRB method. In kind it is functional. As to conditions: read-out: LC50 (the source's name).
The species entered for experiment [3] is Mus musculus. Put plainly: Antidepressant activity in Swiss albino mouse assessed as decrease in immobility time by forced swimming test. Format: functional.
Experiment [4] is filed under the species Mus musculus. Put plainly: Antidepressant activity in Swiss albino mouse assessed as decrease in immobility time by tail suspension test. Format: functional.
Experiment [5] has as its system Mycobacterium tuberculosis. Put plainly: microbe, parasite or virus in culture. The conditions noted are these: H37Rv.
A further experiment deals with Carbonic anhydrase 9 (Homo sapiens, UniProt Q16790). The experiment is described as follows: Inhibition of human CA9.
The target of the next experiment is Carbonic anhydrase 12 (Homo sapiens, UniProt O43570). Put plainly: Inhibition of human CA12.
Experiment [6] concerns HepG2. The experiment is described as follows: cells. The conditions noted are these: Homo sapiens.
Experiment [7] relates to HepG2. Put plainly: Cytotoxicity against human HepG2 cells assessed as growth inhibition. In kind it is functional, cell-based.
Experiment [8] relates to Pseudomonas aeruginosa. Put plainly: Potency index, ratio of ampicillin MIC to compound MIC for Pseudomonas aeruginosa by agar dilution method. In kind it is functional. For orientation: In agar dilution, organisms are placed on agar that contains the substance at set levels.
Another experiment deals with Candida albicans. The experiment is described as follows: Antifungal activity against Candida albicans by agar dilution method. In kind it is functional.
Experiment [9] relates to Escherichia coli. The experiment is described as follows: Antibacterial activity against Escherichia coli assessed as inhibition of bacterial growth. Format: functional.
Experiment [10] has as its system Pseudomonas aeruginosa. The experiment is described as follows: Antibacterial activity against Pseudomonas aeruginosa assessed as inhibition of bacterial growth. Format: functional.
Experiment [11] deals with Staphylococcus aureus. Put plainly: microbe, parasite or virus in culture.
The subject of experiment [12] is Bacillus subtilis. The experiment is described as follows: microbe, parasite or virus in culture.
The test system of experiment [13] is Bordetella bronchiseptica. Put plainly: Antibacterial activity against Bordetella bronchiseptica ATCC 4617 by plate dilution method. In kind it is functional.
For experiment [14], the system named is Staphylococcus aureus. Put plainly: Antibacterial activity against Staphylococcus aureus ATCC 25923 by plate dilution method. Format: functional.
A further experiment concerns Enterococcus faecalis. Put plainly: Antibacterial activity against Enterococcus faecalis ATCC 29212 by plate dilution method. Format: functional.
Experiment [15] relates to Staphylococcus epidermidis. The experiment is described as follows: Antibacterial activity against Staphylococcus epidermidis ATCC 12228 by plate dilution method. In kind it is functional.
Experiment [16] relates to Bacillus subtilis. Put plainly: Antibacterial activity against Bacillus subtilis ATCC 6633 by plate dilution method. In kind it is functional.
Another experiment has as its system Bacillus cereus. The experiment is described as follows: Antibacterial activity against Bacillus cereus ATCC 9946 by plate dilution method. In kind it is functional.
The test system of experiment [17] is Escherichia coli. The experiment is described as follows: Antibacterial activity against Escherichia coli ATCC 25922 by plate dilution method. In kind it is functional.
For experiment [18], the system named is Pseudomonas aeruginosa. Put plainly: Antibacterial activity against Pseudomonas aeruginosa ATCC 27853 by plate dilution method. Format: functional.
The test system of the next experiment is Klebsiella pneumoniae. The experiment is described as follows: Antibacterial activity against Klebsiella pneumoniae ATCC 700603 by plate dilution method. In kind it is functional.
The next experiment deals with Proteus vulgaris. The experiment is described as follows: Antibacterial activity against Proteus vulgaris ATCC 9920 by plate dilution method. Format: functional.

Chain of Acetylcholinesterase (P22303 whole entry): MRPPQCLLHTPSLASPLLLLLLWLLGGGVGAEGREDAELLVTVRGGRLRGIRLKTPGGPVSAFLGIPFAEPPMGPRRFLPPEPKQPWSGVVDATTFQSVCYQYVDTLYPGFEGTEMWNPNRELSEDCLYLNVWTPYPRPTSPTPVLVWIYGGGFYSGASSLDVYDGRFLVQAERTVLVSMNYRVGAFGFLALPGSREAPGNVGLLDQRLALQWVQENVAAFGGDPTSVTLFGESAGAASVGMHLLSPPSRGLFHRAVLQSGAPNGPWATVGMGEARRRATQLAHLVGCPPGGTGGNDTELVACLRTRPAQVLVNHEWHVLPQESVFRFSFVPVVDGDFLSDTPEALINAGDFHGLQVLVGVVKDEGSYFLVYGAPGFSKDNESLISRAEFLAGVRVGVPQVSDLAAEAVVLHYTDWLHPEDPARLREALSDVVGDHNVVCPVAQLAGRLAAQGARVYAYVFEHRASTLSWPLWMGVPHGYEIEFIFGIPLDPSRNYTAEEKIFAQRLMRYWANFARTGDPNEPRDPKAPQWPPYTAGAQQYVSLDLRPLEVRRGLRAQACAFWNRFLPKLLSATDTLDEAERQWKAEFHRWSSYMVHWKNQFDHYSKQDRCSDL
Chain of Carbonic anhydrase 1 (P00915 whole entry): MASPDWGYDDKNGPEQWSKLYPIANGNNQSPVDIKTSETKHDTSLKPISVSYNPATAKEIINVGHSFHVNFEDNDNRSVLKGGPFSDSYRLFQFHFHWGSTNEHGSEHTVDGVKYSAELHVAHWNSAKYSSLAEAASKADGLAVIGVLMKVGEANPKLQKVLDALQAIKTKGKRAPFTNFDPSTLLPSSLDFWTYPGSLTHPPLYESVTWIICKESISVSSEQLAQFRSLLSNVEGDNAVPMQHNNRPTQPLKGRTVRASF
Chain of Carbonic anhydrase 12 (O43570 whole entry): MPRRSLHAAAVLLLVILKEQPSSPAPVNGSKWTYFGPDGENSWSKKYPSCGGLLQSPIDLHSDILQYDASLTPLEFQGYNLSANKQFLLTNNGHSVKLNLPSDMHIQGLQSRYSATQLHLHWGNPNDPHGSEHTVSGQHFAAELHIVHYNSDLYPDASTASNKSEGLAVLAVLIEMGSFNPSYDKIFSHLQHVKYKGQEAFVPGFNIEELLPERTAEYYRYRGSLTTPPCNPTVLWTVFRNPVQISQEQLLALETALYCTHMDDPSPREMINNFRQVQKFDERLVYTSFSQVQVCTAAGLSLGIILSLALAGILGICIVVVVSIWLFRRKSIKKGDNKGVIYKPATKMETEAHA

On to `Cc1ccc2cc(C3CC(c4sccc4Cl)=NN3)c(Cl)nc2c1` (stereo not given), for which, at Acetylcholinesterase, the IC50 (commonly the concentration that gives 50% inhibition) was 200 nM.

For `Cc1ccc2cc(C3CC(c4cc(Cl)sc4Cl)=NN3)c(Cl)nc2c1` (stereo not given), the IC50 on Acetylcholinesterase worked out at 150 nM.

Regarding `OCCNc1nc(NCCO)nc(Nc2ccc(C3=NN(c4cc(Cl)cc(Cl)c4)C(c4ccc(Cl)cc4)C3)cc2)n1` (stereo not given), the GI50 (usually the concentration giving 50% growth inhibition) in experiment [1] is 569 nM. Also, the CC50 in [2] was determined as 5150 nM.

As to `COc1ccc(C2CC(c3ccc(-c4cc(F)cc(F)c4)nc3C)=NN2)cc1OC` (stereo not given), the Time in the experiment filed under Mus musculus [3] is reported as 66.67 s; in the experiment listed under Mus musculus [4], 70.33 s. For the same molecule, in experiment [5], the MIC was found to be 12.5 µg/mL (≈ 30.5 µM).

With `NS(=O)(=O)c1ccc(C(=O)N2N=C(c3ccc(F)cc3)CC2c2ccccc2)cc1` (stereo not given), the Ki (as a rule, a measure of affinity in units of concentration, obtained from inhibition or displacement) turned out to be 87.8 nM at Carbonic anhydrase 1, 5.5 nM at Carbonic anhydrase 9, 7.1 nM on Carbonic anhydrase 12 and 31.7 nM at Carbonic anhydrase 2.

Consider `COc1cc(C2CC(c3ccccc3O)=NN2c2cc3ccccc3s2)cc(OC)c1O` (stereo not given), for which the IC50 in the experiment on HepG2 [6] was found to be 3570 nM.

Take `Cc1nc(-c2cc(F)cc(F)c2)ccc1C1=NNC(c2c(F)cccc2Cl)C1` (stereo not given): the Time is listed as 66.67 s in the experiment filed under Mus musculus [3] and 70.33 s in the experiment listed under Mus musculus [4]. The MIC in [5] turned out to be 12.5 µg/mL (≈ 31.1 µM).

Turning to `Fc1ccc(-c2csc(N3N=C(c4cccs4)CC3c3ccc(Cl)cc3Cl)n2)cc1` (stereo not given), the IC50 in the experiment with HepG2 [7] turned out to be 1700 nM.

As to `O=C1N=C(N2N=C(c3cccs3)CC2c2cc(Cl)ccc2Cl)S/C1=N/Nc1ccc(Cl)cc1` (stereo not given), in the experiment with HepG2 [7], the IC50 worked out at 3540 nM.

For the molecule `Cc1cccc2cc(C3CC(c4cc(Br)ccc4O)=NN3)c3nnnn3c12` (stereo not given), the Ratio in the experiment on Pseudomonas aeruginosa [8] was 2. The MIC against Candida albicans turned out to be 25 µg/mL (≈ 59.1 µM).

In the experiment on HepG2 [6], `CC(=O)N1N=C(c2nnn(-c3ccc(-n4nnc(C5=NN(C(C)=O)C(c6ccccc6)C5)c4C)cc3)c2C)CC1c1ccccc1` (stereo not given) yielded an IC50 of 57.1 µg/mL.

Regarding `CC1(C)S[C@@H]2[C@H](NC(=O)Cc3ccccc3)C(=O)N2[C@H]1C(=O)O` [PENICILLIN G], the MIC came out at 3.12 µg/mL (≈ 9.35 µM) with Escherichia coli [9], 3.12 µg/mL (≈ 9.35 µM) in the experiment on Pseudomonas aeruginosa [10], 0.39 µg/mL (≈ 1.17 µM) against Staphylococcus aureus [11] and 0.39 µg/mL (≈ 1.17 µM) against Bacillus subtilis [12].

Turning to `O=C(/C=C/c1ccc(N2CCCCC2)cc1)c1sccc1Cl`, half-maximal inhibition on Acetylcholinesterase (IC50) required 160 nM.

As to `O=c1oc2ccc(I)cc2cc1-c1csc(N2N=C(c3ccccc3F)CC2c2cc3ccccc3nc2Cl)n1` (stereo not given), the MIC in experiment [13] was 50 µg/mL (≈ 73.6 µM).

As to `COc1ccc(C2=NN(C(=O)c3ccc(S(N)(=O)=O)cc3)C(c3ccccc3)C2)c(OC)c1` (stereo not given), the Ki came out at 87.8 nM on Carbonic anhydrase 1, 5.5 nM at Carbonic anhydrase 9, 7.1 nM on Carbonic anhydrase 12 and 31.7 nM on Carbonic anhydrase 2.

Take `Cc1nc(-c2ccc(Br)cc2)ccc1C1=NNC(c2c(F)cccc2Cl)C1` (stereo not given): the Time is given as 66.67 s in the experiment filed under Mus musculus [3] and 70.33 s in the experiment filed under Mus musculus [4]. The molecule further gave an MIC in experiment [5] of 12.5 µg/mL (≈ 28.1 µM).

As to `Cc1ccc(C(=O)/C=C/c2ccc(N3CCCCC3)cc2)s1`, on Acetylcholinesterase, the IC50 was found to be 130 nM.

As for `COc1cccc2cc(C3CC(c4cc(Br)ccc4O)=NN3)c3nnnn3c12` (stereo not given), in the experiment on Pseudomonas aeruginosa [8], the Ratio came to 2.

Consider `O=c1oc2ccc(F)cc2cc1-c1csc(N2N=C(c3cccc(F)c3)CC2c2cc3ccccc3nc2Cl)n1` (stereo not given), for which the MIC (in [13]; in the experiment on Staphylococcus aureus [14]; against Enterococcus faecalis; in experiment [15]; in the experiment with Bacillus subtilis [16]; against Bacillus cereus) was 50 µg/mL (≈ 87.6 µM) each time. Also, the MIC in the experiment on Escherichia coli [17], in the experiment with Pseudomonas aeruginosa [18], in the experiment with Klebsiella pneumoniae and against Proteus vulgaris was 50 µg/mL (≈ 87.6 µM) throughout.
